Data reported in PubChem BioAssay AID1259418 (Broad Institute, 2018).
“And” between values parts separate entries of the source, which are not always exact repeats. Identical values can stand only once. Inconclusive results are not listed. The source made the active and inactive calls.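 The calls were made as follows: active = fitted half-maximal concentration of signal decrease at or below twice the sample's top tested concentration; inconclusive = flat curve between -70 and -30 percent, or poor fit; inactive = flat within 30 percent, signal rise, or potency above limit.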 Positions of bridges follow the written chain, without caps; N, C: chain ends. Non-standard residues stand in square brackets, D forms with d. Residues, ends and D or L forms follow the SMILES beside them. ξ: configuration not given here. *: point of attachment. Heptanoyl(6-Me) = CC(C)CCCCC(=O)*; ξDab = NCCC(N)C(=O)O; ξT = CC(O)C(N)C(=O)O

Target: T. gondii ME49Luc in IFN-y HeLa, luciferase, 72 h
Experiment: T. gondii growth inhibition with IFN-gamma, dose response, cell-based, ME49Luc, HeLa, luciferase, 72 h (AID 1259418)

SMILES	AC50
CCOc1ccc(-c2nc(CN(c3ccccc3OC)S(=O)(=O)c3cccs3)c(C)o2)cc1	8.23 µM
O=C(Nc1cccc(F)c1)N1CCCCN2[C@H](CO)[C@@H](c3ccc(C#Cc4cccnc4)cc3)[C@@H]2C1	16 µM
COc1ccc(-c2nc(NCC3CCN(Cc4ccc(C)cc4)CC3)c3ccccc3n2)cc1	8.66 µM
Cc1cccc(-c2ccc([C@H]3[C@@H](CO)N4CCCCN(S(=O)(=O)c5ccccc5F)C[C@H]34)cc2)c1	16.9 µM and 13.6 µM
O=C(O)CCc1nc2sc3c(c2c(=O)[nH]1)CCCC3	> 20 µM (inactive)
COc1ccc(-c2nc(Nc3ccc(C)cc3)c3ccccc3n2)cc1	19.1 µM
COCC1(C(=O)N2CCc3c(nc(-c4ccccc4)[nH]c3=O)C2)CCC1	36.2 µM
C[C@@H]1CN([C@H](C)CO)C(=O)Cc2cc(NC(=O)C3CCCCC3)ccc2O[C@H]1CN(C)Cc1ccc(Cl)c(Cl)c1	17.4 µM
O=C(c1ccc(-n2nc(C(F)(F)F)c3c2CCCC3)cc1)N1CCN(c2cccc(Cl)c2)CC1	8.82 µM
Cc1cc(C2CCCN2C(=O)Cn2nc(C(F)(F)F)c3c2CCCC3)no1 (configuration not stated)	34.3 µM
Cc1ccccc1-c1ccc(C2[C@@H]3CN(C(=O)c4ccc(F)cc4)C[C@H]2N3)cc1 (some centres not stated)	19 µM
COc1cccc(NC(=O)N2CC(=O)N3[C@H](CO)[C@H](c4ccc(C#CCC5CCCC5)cc4)[C@H]3C2)c1	12.8 µM and 10.5 µM
N#Cc1cccc(-c2ccc3c(c2)[C@@H]2[C@@H](CCN2C(=O)c2ccccc2F)[C@@H](CO)N3)c1	23.3 µM
N#Cc1ccc(-c2ccc(C3[C@@H]4CN(S(=O)(=O)c5ccc(F)cc5)C[C@H]3N4)cc2)cc1 (some centres not stated)	12.1 µM and 13.8 µM
COc1cccc(S(=O)(=O)N2CCCCN3[C@H](C2)[C@H](c2ccc(C#CCC(C)C)cc2)[C@@H]3CO)c1	9.96 µM and 8.54 µM
Cc1ccc(-c2nc(CN3CCN(C(=O)Nc4ccc(C)c(C)c4)CC3)c(C)o2)cc1	23.2 µM
CO[C@@H]1[C@@H](OC(N)=O)[C@@H](O)[C@H](Oc2ccc3c(O)c(NC(=O)c4ccc(O)c(CC=C(C)C)c4)c(=O)oc3c2C)OC1(C)C	22.2 µM
Clc1ccc(-c2nc(N3CCC(c4ccccc4)C3)c3ccccc3n2)cc1 (configuration not stated)	32.4 µM
Cc1ccc(S(=O)(=O)N2CSC[C@@H]2C(=O)NCCc2csc(-c3ccccc3)n2)cc1	12.9 µM
O=C1CN(S(=O)(=O)c2cccc(F)c2)C[C@@H]2[C@@H](c3ccc(C4=CCCC4)cc3)[C@H](CO)N12	> 39 µM (inactive)
COc1cccc(NC(=O)N2CC(=O)N3[C@H](C2)[C@H](c2ccc(C#CCC4CCCC4)cc2)[C@@H]3CO)c1	14.2 µM and 9.85 µM
Cc1ccccc1CN1C[C@@H]2C[C@H](C(=O)Nc3ccccc3)[C@@H](C1)O2	10.5 µM

SMILES	AC50
COc1ccccc1C1CN(Cc2cccc(O)c2)Cc2ccccc2O1 (configuration not stated)	34.4 µM and 27.5 µM
COc1ccc(S(=O)(=O)N(C)C[C@H]2Oc3c(NC(=O)c4nc5ccccc5s4)cccc3C(=O)N([C@@H](C)CO)C[C@H]2C)cc1	21.8 µM
Cc1ccc(C(=O)N2CCC3(CC2)Nc2cc(F)ccc2-n2cccc23)cc1C	> 39 µM (inactive)
Cc1ccc(-c2nc(CN(c3ccccc3C)S(=O)(=O)c3cccs3)c(C)o2)cc1	9.63 µM
COc1ccc(NC(=O)CN2CCC3(CC2)N=C(c2cccc(C)c2)C(=O)N3)c(OC)c1	29.4 µM
CN(C)C(=O)c1ccc(-c2ccc3c(c2)[C@@H]2[C@@H](CCN2C(=O)C2CCCC2)[C@H](CO)N3C)cc1	20.6 µM
COc1cccc(CN2C[C@@H]3N[C@H](C2)C3c2ccc(-c3ccccc3C)cc2)c1 (some centres not stated)	19 µM and 12.1 µM
CC(C)CCCCC(=O)NC(CCN)C(=O)NC(C(=O)NC(CCN)C(=O)NC1CCNC(=O)C(C(C)O)NC(=O)C(CCN)NC(=O)C(CCN)NC(=O)[C@H](CC(C)C)NC(=O)[C@@H](CC(C)C)NC(=O)C(CCN)NC1=O)C(C)O (stereo partly drawn) ({Heptanoyl(6-Me)}-[ξDab][ξT][ξDab][ξDab][ξDab][dL]L[ξDab][ξDab][ξT]; lactam 4-C)	18.3 µM
Cc1ccc(CNC2=NCCNC23CCN(S(=O)(=O)c2ccc(C)c(C)c2)CC3)cc1	7.83 µM
Fc1ccc(Nc2nc(SCc3ccccc3Cl)nc3ccccc23)cc1F	11.3 µM
Cc1cccc(NC(=O)COc2nc(C)nc3ccccc23)c1	32 µM
O=C(Nc1cccc(F)c1)N1CCCCN2[C@H](CO)[C@H](c3ccc(C#Cc4cccnc4)cc3)[C@@H]2C1	2.07 µM and 1.05 µM
C[C@@H]1CN([C@@H](C)CO)C(=O)Cc2cc(NC(=O)C3CCCCC3)ccc2O[C@@H]1CN(C)Cc1ccc(Cl)c(Cl)c1	15.1 µM and 5.01 µM
CC(C)C#Cc1ccc([C@@H]2[C@@H](CO)N3C(=O)CN(S(=O)(=O)c4ccccc4)C[C@H]23)cc1	19.2 µM
Cc1ccc(-c2nc(CN3CCN(C(=O)Nc4cccc(Cl)c4)CC3)c(C)o2)cc1	> 39 µM (inactive)
COC(=O)C[C@H]1CC[C@@H]2[C@@H](COc3ccc(NC(=O)Nc4cccc(C#N)c4)cc3C(=O)N2C)O1	27.5 µM and 18.5 µM
Cc1cccc(CNC2=NCCNC23CCN(S(=O)(=O)c2ccc(C(C)C)cc2)CC3)c1	13 µM
O=C(Cc1ccc(Cl)cc1)N1CC2(CCN(Cc3ccc(C(F)(F)F)cc3)CC2)C1	22.2 µM
COc1ccccc1N(Cc1nc(-c2cccc(C)c2)oc1C)S(=O)(=O)c1ccccc1	13.3 µM
CC/C(=C(\c1ccccc1)c1ccc(OCCN(C)C)cc1)c1ccccc1	35.2 µM
O=C(NCCc1csc(-c2ccccc2)n1)[C@H]1CCCN1S(=O)(=O)c1ccc(Cl)s1	12.9 µM
COc1ccccc1C(=O)Nc1ccc(-c2nc(-c3ccc(C)cc3)co2)cc1	19.1 µM

SMILES	AC50
O=C(c1cccn2c(-c3ccc(F)cc3)nnc12)N1CCC(O)(c2ccc(Cl)cc2)CC1	25.4 µM
CN(C)C(=O)c1ccc(-c2ccc3c(c2)[C@H]2[C@H](CCN2C(=O)C2CCCC2)[C@@H](CO)N3C)cc1	18.8 µM
COc1cccc(S(=O)(=O)N2CCCCN3[C@H](CO)[C@H](c4ccc(-c5ccccc5)cc4)[C@H]3C2)c1	5.11 µM
O=C(CCCCCCNC(=O)c1cnc(N(c2ccccc2)c2ccccc2)nc1)NO	14.8 µM
CCc1ccccc1S(=O)(=O)N1CCc2nc(-c3ccc(OC)cc3)sc2C1	7.8 µM and 14.9 µM
COc1cccc(S(=O)(=O)N2CCCCN3[C@H](C2)[C@@H](c2ccc(C#CCC(C)C)cc2)[C@@H]3CO)c1	15.3 µM
CCCC#Cc1ccc([C@H]2[C@H](CO)N3C(=O)CN(C(=O)Nc4cccc(F)c4)C[C@@H]23)cc1	10.4 µM
CN(C[C@H]1N[C@@H](CO)[C@@H]1c1ccc(C2=CCCC2)cc1)C(=O)c1cccc(F)c1	15.2 µM and 3.49 µM
O=C1CCc2cc(S(=O)(=O)N3CCc4ccccc4C3)cc3c2N1CCC3	31.1 µM
CCc1ccc(S(=O)(=O)N2CCC3(CC2)NCCN=C3NC2CCCCCC2)cc1	5.05 µM
CCN(CC)CCO[C@H]1CC[C@@]2(C)C(=CC[C@@H]3[C@@H]2CC[C@]2(C)C(=O)CC[C@@H]32)C1	12 µM
COc1ccc(-c2ccc(C3[C@@H]4CN(C(=O)c5ccc(F)cc5)C[C@H]3N4)cc2)cc1 (some centres not stated)	15.8 µM and 11.3 µM
COc1cc(Nc2nc(SCc3ccc(F)cc3)nc3ccccc23)cc(OC)c1	13.2 µM
CC(C)c1ccc(S(=O)(=O)N2CCC3(CC2)NCCN=C3NCc2ccc3c(c2)OCO3)cc1	33.6 µM
CCOc1ccc(-c2nc3c(s2)CN(S(=O)(=O)c2cccc(F)c2)CC3)cc1	> 39 µM (inactive)
COc1ccc(C#Cc2ccc([C@@H]3[C@@H](CO)N4C(=O)CN(C(=O)NC(C)C)C[C@@H]34)cc2)cc1	20.4 µM
COC1(C)CC2C(CC1OC(=O)c1cc([N+](=O)[O-])cc([N+](=O)[O-])c1)C2(C)C (configuration not stated)	12.4 µM
O=S(=O)(c1ccc(Cl)s1)N1CCC2(CC1)NCCN=C2NCc1cc(F)cc(F)c1	18 µM
CN(C)CCNC(=O)c1ccc2onc(-c3coc(C4CC4)n3)c2c1	21.3 µM
Cc1ccccc1-c1ccc(C2[C@H]3CNC[C@@H]2N3Cc2ccc3c(c2)OCO3)cc1 (some centres not stated)	> 39 µM (inactive)
CCOc1ccc(-c2nc(CN(c3ccc(OC)cc3)S(=O)(=O)c3ccccc3)c(C)o2)cc1	21.1 µM
O=C(c1ccc(-n2c(=S)[nH]c3ccccc3c2=O)cc1)N1CCC(O)(c2cccc(C(F)(F)F)c2)CC1	38 µM

SMILES	AC50
OC[C@@H]1Nc2ccc(C#Cc3ccc(F)cc3)cc2[C@@H]2[C@H]1CCN2Cc1ccc2c(c1)OCO2	15.4 µM and 23.4 µM
CCCCNC(=O)CCC1N=C2c3ccccc3N=C(SCc3cccc(Cl)c3)N2C1=O (configuration not stated)	14.6 µM
COc1ccccc1C(=O)N1CCC2(CC1)Nc1ccc(Cl)cc1-n1cccc12	33.9 µM
CCOc1ccc(-c2nc(CN(c3ccc(OC)cc3)S(=O)(=O)c3cccs3)c(C)o2)cc1	8.01 µM and 17.4 µM
O=C(c1ccc(F)cc1)N1CC(=O)N2[C@H](CO)[C@@H](c3ccc(C#CCC4CCCC4)cc3)[C@@H]2C1	17.6 µM and 4.58 µM
COc1ccc(-c2nc(CN(c3cccc(OC)c3)S(=O)(=O)c3ccc(C)cc3)c(C)o2)cc1	8.49 µM
CCOc1ccccc1N(Cc1nc(-c2ccc(OC)cc2)oc1C)S(=O)(=O)c1cccs1	7.45 µM
COc1cc(NC(=O)Nc2ccc(-c3nc(-c4ccc(C)cc4C)co3)cc2)cc(OC)c1	25.7 µM
O=C(c1ccc(-n2nc(C(F)(F)F)c3c2CCCC3)cc1)N1CCN(C2CCCCC2)CC1	10.1 µM and > 39 µM (inactive)
COc1ccc(-c2nc(NCC3CCN(Cc4ccc(C)cc4)C3)c3ccccc3n2)cc1 (configuration not stated)	13.5 µM
Cc1ccc(-c2coc(-c3ccc(NS(=O)(=O)c4ccc(F)c(Cl)c4)cc3)n2)c(C)c1	24.7 µM
CC(C)(C)CC(C)(C)c1ccc(OCCOCC[N+](C)(C)Cc2ccccc2)cc1	15.6 µM
Cc1oc(-c2cccc(Cl)c2)nc1CN1CCN(C(=O)Nc2ccc(F)cc2)CC1	24.1 µM
OC[C@H]1Nc2ccc(-c3cccc(F)c3)cc2[C@@H]2[C@H]1CCN2Cc1ccc(F)cc1	20 µM
Cc1cc(C2CCCN2Cc2cn(C(C)C)c3ccccc23)no1 (configuration not stated)	35.1 µM
COc1ccccc1-c1nc(Cn2nnc(-c3nc(-c4ccc(C)cc4)no3)c2C)c(C)o1	> 20 µM (inactive)
O=C(C[C@H]1CC[C@@H]2[C@H](COC[C@@H](O)CN2Cc2ccc(Oc3ccccc3)cc2)O1)N1CCN(c2ccccc2)CC1	24 µM
C(=C\c1ccc(C2[C@H]3CNC[C@@H]2N3CC2CCOCC2)cc1)/c1ccccc1 (some centres not stated)	26.3 µM
CC(C)n1c(C(=O)N2CCN(c3ccncc3)CC2)cc2c1c1ccccc1n2C	19.9 µM
Cc1ccc(-c2nc(CN3CCN(C(=O)NCCc4ccccc4)CC3)c(C)o2)cc1	> 39 µM (inactive)
O=C(Nc1cccc(F)c1)N1CCCCN2[C@H](CO)[C@@H](c3ccc(C#Cc4cccnc4)cc3)[C@H]2C1	19.1 µM
